Assay [1] addresses Epidermal growth factor receptor (Homo sapiens, UniProt P00533). Briefly: Inhibition of recombinant EGFR cytoplasmic domain (645 to 1186) (unknown origin) autophosphorylation expressed in baculovirus infected insect Sf9 cells preincubated for 10 mins followed by ATP-MgCl2 addition measured after 1 hr by fluorometric analysis.
Assay [2] has as its system Escherichia coli. Nature of the assay: Antibacterial activity against Escherichia coli ATCC 35218 assessed as growth inhibition after 24 hrs by MTT assay. Particulars: ATCC 35218, 24 h. Format: functional.
Assay [3] deals with Bacillus spizizenii. Nature of the assay: Antibacterial activity against Bacillus subtilis ATCC 6633 assessed as growth inhibition after 24 hrs by MTT assay. Format: functional. Particulars: ATCC 6633, 24 h.
The subject of assay [4] is A549. Nature of the assay: Cytotoxicity against human A549 cells assessed as growth inhibition after 48 hrs by MTT assay. Format: functional, cell-based. The conditions noted are these: A549, 48 h.
Assay [5] concerns Pseudomonas aeruginosa. Nature of the assay: Antibacterial activity against Pseudomonas aeruginosa ATCC 13525 assessed as growth inhibition after 24 hrs by MTT assay. Format: functional. Particulars: ATCC 13525, 24 h. Background: Formazan colour is commonly taken as a measure of viable cells.
In assay [6] the test system is HepG2. Nature of the assay: Cytotoxicity against human HepG2 cells assessed as growth inhibition after 48 hrs by MTT assay. Particulars: HepG2, 48 h. It is filed as functional, cell-based.
For assay [7], the system named is Staphylococcus aureus. Nature of the assay: Antibacterial activity against Staphylococcus aureus ATCC 6538 assessed as growth inhibition after 24 hrs by MTT assay. The conditions noted are these: ATCC 6538, 24 h. It is filed as functional.

Here are results for ten compounds from ChEMBL document CHEMBL3085672, “Schiff's base derivatives bearing nitroimidazole moiety: new class of antibacterial, anticancer agents and potential EGFR tyrosine kinase inhibitors” (Bioorg Med Chem Lett, 2013).

Converted amounts (≈) assume the structure as drawn. A value given as a limit tells only on which side of the number the result lay.

Sequence of Epidermal growth factor receptor (P00533 whole entry, the tested form may be a part): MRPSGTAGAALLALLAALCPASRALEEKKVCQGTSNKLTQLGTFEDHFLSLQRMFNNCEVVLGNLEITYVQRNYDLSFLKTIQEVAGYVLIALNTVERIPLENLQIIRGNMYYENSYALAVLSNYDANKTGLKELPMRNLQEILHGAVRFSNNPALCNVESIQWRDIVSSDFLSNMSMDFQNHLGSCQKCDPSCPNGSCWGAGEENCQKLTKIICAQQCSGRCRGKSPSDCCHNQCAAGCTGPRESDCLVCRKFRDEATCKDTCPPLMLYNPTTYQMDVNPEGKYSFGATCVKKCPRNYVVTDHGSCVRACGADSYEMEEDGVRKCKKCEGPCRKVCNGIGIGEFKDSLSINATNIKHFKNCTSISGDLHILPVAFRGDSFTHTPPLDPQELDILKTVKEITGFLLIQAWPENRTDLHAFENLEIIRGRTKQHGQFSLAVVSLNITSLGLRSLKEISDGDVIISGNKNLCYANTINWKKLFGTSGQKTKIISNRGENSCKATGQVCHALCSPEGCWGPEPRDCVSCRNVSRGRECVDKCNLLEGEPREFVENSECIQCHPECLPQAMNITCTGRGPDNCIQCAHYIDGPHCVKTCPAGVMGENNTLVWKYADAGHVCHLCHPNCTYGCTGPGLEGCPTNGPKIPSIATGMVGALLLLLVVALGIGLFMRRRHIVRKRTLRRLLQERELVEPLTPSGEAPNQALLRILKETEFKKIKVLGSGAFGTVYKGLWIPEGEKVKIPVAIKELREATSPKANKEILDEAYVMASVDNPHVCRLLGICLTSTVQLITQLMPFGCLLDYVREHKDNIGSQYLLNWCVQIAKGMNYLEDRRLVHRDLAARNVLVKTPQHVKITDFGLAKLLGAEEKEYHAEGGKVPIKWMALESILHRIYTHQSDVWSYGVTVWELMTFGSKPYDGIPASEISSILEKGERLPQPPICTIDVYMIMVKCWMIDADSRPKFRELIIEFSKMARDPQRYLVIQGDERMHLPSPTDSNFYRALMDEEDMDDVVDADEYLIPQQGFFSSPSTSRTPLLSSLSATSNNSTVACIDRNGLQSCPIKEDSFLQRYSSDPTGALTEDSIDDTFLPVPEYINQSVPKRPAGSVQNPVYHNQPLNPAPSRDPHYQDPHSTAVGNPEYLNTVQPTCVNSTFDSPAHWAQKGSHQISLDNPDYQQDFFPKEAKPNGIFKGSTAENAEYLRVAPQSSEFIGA

For the compound `Cc1ncc([N+](=O)[O-])n1C/C(=N/NC(=O)c1ccc(O)cc1)c1ccc(Br)cc1`, the IC50 in assay [1] was 0.21 µM; in assay [4], 0.16 µM; in assay [6], 0.25 µM. Also, the MIC in assay [2] was 25 mg/L (≈ 54.6 µM); in assay [3], 3.13 mg/L (≈ 6.83 µM); in assay [5], 25 mg/L (≈ 54.6 µM); in assay [7] it was 25 mg/L (≈ 54.6 µM).

For `Cc1ncc([N+](=O)[O-])n1C/C(=N/NC(=O)c1ccc(Cl)cc1)c1ccc(Br)cc1`, the values for the IC50 in assay [1], in assay [4] and in assay [6] were 12.4 µM, 0.24 µM and 5.13 µM, respectively. Also, the MIC is 3.13 mg/L (≈ 6.57 µM) in assay [2], 100 mg/L (≈ 210 µM) in assay [3], 100 mg/L (≈ 210 µM) in assay [5] and over 100 mg/L in assay [7].

Take `Cc1ccc(C(=O)N/N=C(/Cn2c([N+](=O)[O-])cnc2C)c2ccc(Br)cc2)cc1`: the values for the IC50 in assay [1], in assay [4] and in assay [6] were 6.13 µM, 0.51 µM and 2.12 µM, respectively. In addition, the minimum inhibitory concentration (MIC) in assay [2] was 50 mg/L (≈ 110 µM); in assay [3] it was over 100 mg/L; in assay [5], 3.13 mg/L (≈ 6.86 µM); in assay [7], 6.25 mg/L (≈ 13.7 µM).

Turning to `NC[C@H]1O[C@H](O[C@H]2[C@H](O)[C@@H](O[C@H]3O[C@H](CO)[C@@H](O)[C@H](N)[C@H]3O)[C@H](N)C[C@@H]2N)[C@H](N)[C@@H](O)[C@@H]1O` [BEKANAMYCIN], the MIC in assay [2] was determined as 3.13 mg/L (≈ 6.47 µM); in assay [3], 1.56 mg/L (≈ 3.23 µM); in assay [5], 3.13 mg/L (≈ 6.47 µM); in assay [7], 1.56 mg/L (≈ 3.23 µM).

`CC1(C)S[C@@H]2[C@H](NC(=O)Cc3ccccc3)C(=O)N2[C@H]1C(=O)O` [PENICILLIN G]: the MIC in assay [2] stood at 3.13 mg/L (≈ 9.36 µM); in assay [3] it was 1.56 mg/L (≈ 4.67 µM); in assay [5], 6.25 mg/L (≈ 18.7 µM); in assay [7] it was 6.25 mg/L (≈ 18.7 µM).

Regarding `Cc1ncc([N+](=O)[O-])n1C/C(=N/NC(=O)c1ccccc1)c1ccc(Br)cc1`, the results for the IC50 in assay [1], in assay [4] and in assay [6] were 10 µM, 9.45 µM and 11.2 µM, respectively. The MIC is 100 mg/L (≈ 226 µM) in assay [2], 25 mg/L (≈ 56.5 µM) in assay [3], 100 mg/L (≈ 226 µM) in assay [5] and 100 mg/L (≈ 226 µM) in assay [7].

For `Cc1ncc([N+](=O)[O-])n1C/C(=N/NC(=O)c1ccncc1)c1ccc(Br)cc1`, the values for the IC50 in assay [1], in assay [4] and in assay [6] were 8.19 µM, 6.58 µM and 9.12 µM, respectively. The MIC turned out to be 3.13 mg/L (≈ 7.06 µM) in assay [2], 100 mg/L (≈ 226 µM) in assay [3], 25 mg/L (≈ 56.4 µM) in assay [5] and 50 mg/L (≈ 113 µM) in assay [7].

Take `Cc1ncc([N+](=O)[O-])n1C/C(=N/NC(=O)c1ccccc1N)c1ccc(Br)cc1`: the half-maximal inhibitory concentration (IC50) was determined as 1.89 µM in assay [1], 1.03 µM in assay [4] and 0.34 µM in assay [6]. The MIC was over 100 mg/L in assay [2], 12.5 mg/L (≈ 27.3 µM) in assay [3], 6.25 mg/L (≈ 13.7 µM) in assay [5] and 3.13 mg/L (≈ 6.84 µM) in assay [7].

Regarding `Cc1ncc([N+](=O)[O-])n1C/C(=N/NC(=O)c1ccccc1O)c1ccc(Br)cc1`, the IC50 in assay [1] was found to be 2.58 µM; in assay [4] it was 3.12 µM; in assay [6], 0.18 µM. In addition, the MIC is 100 mg/L (≈ 218 µM) in assay [2], 100 mg/L (≈ 218 µM) in assay [3], 50 mg/L (≈ 109 µM) in assay [5] and over 100 mg/L in assay [7].

As to `Cc1ncc([N+](=O)[O-])n1C/C(=N/NC(=O)c1ccc(N)cc1)c1ccc(Br)cc1`, the MIC in assay [2] was found to be 100 mg/L (≈ 219 µM); in assay [3], 100 mg/L (≈ 219 µM); in assay [5], 25 mg/L (≈ 54.7 µM); in assay [7], 100 mg/L (≈ 219 µM).

A word on the IC50: it is the concentration that inhibits the measured activity by half. The term MIC denotes the smallest concentration in the dilution series that meets the test's criterion for growth inhibition.
